Measurements from US10517920B2, “Antibacterial peptide and method of treatment using the antibacterial peptide” (United Arab Emirates University, priority 2011, dated 2019).
Where no end group is shown, it is not given here.

Test system: Gram-positive and Gram-negative bacteria
Experiment: In vitro disc diffusion of identified amino acid sequences
Format: cell-based
Protocol: Each amino acid sequence identified in each of samples 1, sample 2 and sample 3, were checked for antibacterial activity using the invitro disc diffusion method of Murray P R et al; 1995 (Murray P R, Baron E J, Pfaller M A, Tenover F C, Yolke R H. (1995). Manual of Clinical Microbiology, ASM, Washington, D.C. 6th edition.)
The amino acid sequences were also compared to an Ampicillin standard of 10 μg/mL

Sequence	Antibacterial activity of amino acid sequences	Antibacterial activity compared with the standard drug ampicillin
KRGRLIWRVWRGIW [SEQ ID NO: 4, antibacterial peptide from the <10 kDa fraction of date pits degraded by solid state degradation]	maximum anti-bacterial activity	comparable to the standard drug ampicillin
RQWISRWTWQR [SEQ ID NO:6, antibacterial peptide from the <10 kDa fraction of date pits degraded by solid state degradation]	maximum anti-bacterial activity	comparable to the standard drug ampicillin
